# Target: T1, hNav1.2 sodium channel (Homo sapiens, UniProt Q99250)
# T1 construct: expressed in transfected cells
# Experiment: Nav1.2 use-dependent block, whole-cell voltage clamp, 10 Hz pulse train
# Assay type: cell-based
# Details: Chantest conditions, read-out: NAV1.2 UDB-10 HZ % Inhibition
# Text: Wild-type (WT) cDNA stably transfected in Chinese hamster ovary (CHO) cells is used to record INa. Unless otherwise noted, all reagents are purchased from Sigma-Aldrich (St Louis, Mo., U.S.A.).
# Whole-cell voltage-clamp recordings are used to measure the biophysical properties of WT. Briefly, the pipette solution consists of (in mM) 110 CsF, 10 NaF, 20 CsCl, 2 EGTA, 10 HEPES, with a pH of 7.35 and osmolarity of 300 mOsmol/kg. The bath (control) solution contains in (mM): 145 NaCl, 4 KCl, 1.8 CaCl2, 1 MgCl2, 10 dextrose, 10 HEPES, with a pH of 7.35 and osmolarity of 310 mOsmol/kg. Cells are allowed to stabilize for 10 min after establishment of the whole-cell configuration before current is measured. Series resistance is compensated 90% to assure that the command potential is reached within microseconds with a voltage error<2 mV. Leak currents are subtracted by using an online P/4 procedure and all currents are low-pass Bessel filtered at 5 kHz and digitized at 50 kHz.
# Tonic block of peak current is measured using a step to −10 mV (20 ms) from a holding potential of −120 mV (0.2 Hz). Use-dependent block of peak current is measured during pulse number 300 of a pulse train (−10 mV, 5 ms, 300 pulses, 10 Hz or 25 Hz) from a holding potential of −120 mV. Currents are then normalized to the peak current recorded in response to the first pulse in each frequency train. For tonic block studies, peak current is evaluated in response to a 20 ms depolarization to −10 mV (0.2 Hz). Two sequential pulse train stimulations are averaged to obtain mean current traces for each recording condition, which are then used for offline subtraction and analysis.
# A stock solution of 10 mM compound of Formula I is prepared in 0.1 M HCl or DMSO. A fresh dilution of the compound of Formula I in the bath solution is prepared every experimental day and the pH is readjusted to 7.35 as necessary. The final DMSO concentration was kept at 0.1% in all solutions. Direct application of the perfusion solution to the clamped cell is achieved using the Perfusion Pencil system (Automate, Berkeley, Calif.). Direct cell perfusion is driven by gravity at a flow rate of 350 μL/min using a 250 micron tip. This system sequesters the clamped cell within a perfusion stream and enables complete solution exchange within 1 second. The clamped cell is perfused continuously starting immediately after establishing the whole-cell configuration. Control currents are measured during control solution perfusion.
# Solutions are perfused for three minutes prior to current recordings to allow equilibrium (tonic) drug block. Tonic block of peak currents is measured from this steady-state condition. Three sequential current traces are averaged to obtain a mean current for each recording. The mean current traces are utilized for offline analysis.
# T1 sequence (Q99250 whole entry): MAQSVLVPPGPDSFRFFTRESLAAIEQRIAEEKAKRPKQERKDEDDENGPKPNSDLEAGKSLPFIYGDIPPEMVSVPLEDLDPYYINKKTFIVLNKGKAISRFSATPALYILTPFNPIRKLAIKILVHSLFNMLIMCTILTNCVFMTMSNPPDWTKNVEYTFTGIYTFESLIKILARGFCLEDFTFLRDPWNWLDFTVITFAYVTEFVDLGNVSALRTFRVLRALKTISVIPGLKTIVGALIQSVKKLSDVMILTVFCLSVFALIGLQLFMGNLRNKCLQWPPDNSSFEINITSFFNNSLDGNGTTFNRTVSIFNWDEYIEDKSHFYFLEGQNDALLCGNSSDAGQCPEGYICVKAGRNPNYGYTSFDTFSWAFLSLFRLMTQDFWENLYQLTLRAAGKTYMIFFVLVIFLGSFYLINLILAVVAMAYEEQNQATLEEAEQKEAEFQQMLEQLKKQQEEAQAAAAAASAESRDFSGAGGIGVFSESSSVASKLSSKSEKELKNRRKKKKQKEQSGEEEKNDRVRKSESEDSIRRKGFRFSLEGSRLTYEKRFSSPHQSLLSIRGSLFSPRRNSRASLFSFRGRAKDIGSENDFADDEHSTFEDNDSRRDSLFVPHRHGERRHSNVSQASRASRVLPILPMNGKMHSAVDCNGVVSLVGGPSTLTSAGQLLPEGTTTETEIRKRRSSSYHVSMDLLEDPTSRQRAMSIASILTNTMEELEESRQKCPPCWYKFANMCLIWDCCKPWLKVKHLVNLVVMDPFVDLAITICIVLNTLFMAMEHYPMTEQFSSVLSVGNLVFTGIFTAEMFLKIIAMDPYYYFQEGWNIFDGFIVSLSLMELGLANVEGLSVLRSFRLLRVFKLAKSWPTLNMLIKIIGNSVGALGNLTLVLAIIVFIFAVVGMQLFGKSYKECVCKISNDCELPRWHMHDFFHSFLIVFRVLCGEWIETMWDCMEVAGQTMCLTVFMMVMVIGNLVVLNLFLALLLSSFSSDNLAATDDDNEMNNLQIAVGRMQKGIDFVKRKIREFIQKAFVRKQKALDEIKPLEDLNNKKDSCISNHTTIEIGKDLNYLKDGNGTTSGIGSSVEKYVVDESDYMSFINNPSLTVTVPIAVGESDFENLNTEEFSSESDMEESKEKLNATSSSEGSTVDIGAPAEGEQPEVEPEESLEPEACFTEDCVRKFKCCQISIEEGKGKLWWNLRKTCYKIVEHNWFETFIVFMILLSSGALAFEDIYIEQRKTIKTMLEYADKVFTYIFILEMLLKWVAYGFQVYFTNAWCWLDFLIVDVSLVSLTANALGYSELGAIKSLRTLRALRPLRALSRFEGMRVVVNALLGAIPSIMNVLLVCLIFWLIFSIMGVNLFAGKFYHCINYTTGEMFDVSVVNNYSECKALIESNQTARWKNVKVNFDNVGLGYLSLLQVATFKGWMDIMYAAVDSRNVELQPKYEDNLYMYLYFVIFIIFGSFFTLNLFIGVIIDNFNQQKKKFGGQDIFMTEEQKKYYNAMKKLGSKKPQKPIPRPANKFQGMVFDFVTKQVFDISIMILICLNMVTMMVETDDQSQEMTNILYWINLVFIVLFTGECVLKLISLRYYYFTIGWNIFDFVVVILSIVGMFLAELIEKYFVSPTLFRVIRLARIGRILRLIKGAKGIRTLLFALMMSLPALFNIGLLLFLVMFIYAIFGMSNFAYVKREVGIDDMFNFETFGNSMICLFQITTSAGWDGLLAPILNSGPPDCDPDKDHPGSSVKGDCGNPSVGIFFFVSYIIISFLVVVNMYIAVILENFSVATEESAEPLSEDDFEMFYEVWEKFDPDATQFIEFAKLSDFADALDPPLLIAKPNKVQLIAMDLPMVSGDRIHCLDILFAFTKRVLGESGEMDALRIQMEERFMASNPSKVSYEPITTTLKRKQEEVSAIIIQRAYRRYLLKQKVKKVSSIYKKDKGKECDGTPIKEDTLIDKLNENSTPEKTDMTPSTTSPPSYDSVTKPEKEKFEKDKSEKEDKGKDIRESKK
smiles,measurement,value
"FC(F)(F)c1ccc(-c2ccc3c(c2)C(NCc2ccccc2)=NCCO3)cc1 [II-2, N-benzyl-7-(4-(trifluoromethyl)phenyl)-2,3-dihydrobenzo[f][1,4]oxazepin-5-amine]",inhibition at 1 µM,24%
